The structures appear in SMILES notation.

The data set is described as follows: Human HepG2 cell viability assay in 384 well format. Type of data set: toxicity, cell-based. The arrangement: dose 125 nL, time 70.5 hour; cytotoxicity at 70.5 h: concentration not given beside the values. The note with it: HepG2 cells, read-out: Inhibition.
As to `Cc1noc(C)c1S(=O)(=O)N1CCC(Oc2ccccn2)CC1`, the cytotoxicity at 70.5 h came to 10%. Consider `Cc1cc(N2CCC(C(=O)N(C)C)CC2)nc(-c2ccncc2)n1`, for which the cytotoxicity at 70.5 h was 3.79%.

Take `COCCC1COC2(CCN(C(=O)CC3CCCC3)CC2)C1` (stereo not given): the cytotoxicity at 70.5 h was -3.15%.

Regarding `CCC(C)(C)C(=O)Nc1ccc2ccn(CC(=O)NC)c2c1`, the cytotoxicity at 70.5 h is -0.594%. Consider `CCOc1ncccc1CNCc1c(C)nn(C)c1N(C)C`, for which the cytotoxicity at 70.5 h was determined as 24.1%.

As for `CC(c1ccco1)n1cc(-c2cc(CN3CCCC3)cs2)nn1` (stereo not given), the cytotoxicity at 70.5 h was -0.331%. Turning to `O=C(NCC(Cc1cccc(F)c1)N1CCCC1=O)C1CCCC1` (stereo not given), the cytotoxicity at 70.5 h was -13.2%.

Turning to `CCOc1ncccc1NC(=O)C1CCS(=O)(=O)C1` (stereo not given), the cytotoxicity at 70.5 h was found to be 0.736%. As to `CC(C)CC(NC(=O)c1ccn(C)c(=O)c1)c1ccccc1` (stereo not given), the cytotoxicity at 70.5 h was 33.2%. Take `CC(C)C(=O)N1CCCC1C(=O)Nc1cc(C(F)(F)F)ccc1F` (stereo not given): the cytotoxicity at 70.5 h is -17.3%. The figure for `O=C(CCN1CCCC1c1cccc2c1OCCO2)N1CCOCC1` (stereo not given) is -2.76%; for `CC(=O)NCC(=O)N1CCC2(CC1)NC(=O)CC2c1cccnc1` (stereo not given) it is -1.28%; for `CCOCCNC(=O)c1cccc(Cn2nc(C)cc2C)c1` it is -7.21%. For the molecule `CC(C)(C)C(=O)N[C@H]1C[C@@H](Cc2cc(CN3CCOCC3)on2)C1(C)C`, the cytotoxicity at 70.5 h is -6.62%. On to `O=C1CC(N(C(=O)c2ccc(F)c(C(F)(F)F)c2)C2CC2)C(=O)N1` (stereo not given), for which the cytotoxicity at 70.5 h turned out to be 0.0677%.

For `Cc1ccc(C)c(OCC(O)CN(C)CC(=O)Nc2cc(C)on2)c1` (stereo not given), the cytotoxicity at 70.5 h was found to be 3.48%. Consider `O=S(=O)(CC1CCCCO1)Nc1cnn(Cc2ccccc2)c1` (stereo not given), for which the cytotoxicity at 70.5 h is -7.62%. With `CN(C)c1ncc(-c2ccc(NC(=O)[C@@H]3CCCCN3)cc2)cn1`, the cytotoxicity at 70.5 h was -0.758%. The figure for `CC(Nc1cccc(CN2CCOC2=O)c1)C(=O)N1CCNC1=O` (stereo not given) is -6.02%; for `Nc1cc2c(nn1)CCN(C(=O)Cc1ccc3c(c1)CCO3)C2` it is 9.71%; for `CC(CCc1cccc(F)c1)NC(=O)NCc1ncnn1C` (stereo not given) it is -5.76%. Take `CCC(CC)NC(=O)c1ccc2nnc(C3CCN(C(C)=O)C3)n2c1` (stereo not given): the cytotoxicity at 70.5 h was 5.94%. As to `COc1ccc([C@@H]2CN(C(=O)c3cscn3)C[C@H]2C(=O)O)cc1`, the cytotoxicity at 70.5 h is -3.2%.

With `Cn1ccc2c(C(=O)NCCCN3CCCC3)cccc21`, the cytotoxicity at 70.5 h was -3.04%.

With `Cc1c(I)cccc1C(=O)NCc1nnc[nH]1`, the cytotoxicity at 70.5 h was -8.8%. In the case of `CC(C)c1cc(NC(=O)CN2CCc3ccccc3C2)on1`, the cytotoxicity at 70.5 h is -6.95%. For `CC(C)(O)CN1CCN(C(=O)COCC(F)(F)F)CC1` the value was 15.1%; for `Cc1cnn(CC(=O)N2CCCN(c3ncccc3C#N)CC2)c1`, -1.08%; for `CCn1cc2c(n1)C(COCC1CC1)CN(C(=O)c1ccco1)C2` (stereo not given), -10.5%. For the molecule `Cc1cccc(-c2noc(CN3CCOCC3C)n2)c1` (stereo not given), the cytotoxicity at 70.5 h is -5.27%. Regarding `O=C(CN1CCCC(c2ccn[nH]2)C1)Nc1nc2c(s1)CCC2` (stereo not given), the cytotoxicity at 70.5 h is -2.76%. The figure for `Cc1cnn(CC2CCCCN2Cc2c(C)noc2C)c1` (stereo not given) is -14.5%; for `Cn1nc2c(cc1=O)CN(Cc1nc(C(C)(C)C)no1)CC2` it is -5.46%; for `CCc1noc(CN2CCN(Cc3cccs3)CC2)n1` it is -10%. On to `CO[C@H]1COCCN(C(=O)c2ccc(F)cc2)C1`, for which the cytotoxicity at 70.5 h is -3.92%.

For the molecule `Cc1nc(CN2CCCC2Cn2ccnc2C(C)C)nc2ccccc12` (stereo not given), the cytotoxicity at 70.5 h amounted to 19.9%. In the case of `CCOc1ncnc2c1CCN(S(=O)(=O)C1CC1)CC2`, the cytotoxicity at 70.5 h was found to be 14%.

For `c1cnc(N2CCC3(CN(CC4CCOC4)C3)C2)nc1` (stereo not given), the cytotoxicity at 70.5 h came to 24.1%. On to `CC(=O)N1[C@H](Cn2cncn2)C[C@@H]2CN(S(C)(=O)=O)CC[C@@H]21`, for which the cytotoxicity at 70.5 h was -8.6%. For `COc1ncc(C(F)(F)F)c(C(=O)O)c1Cl`, the cytotoxicity at 70.5 h amounted to 24.8%.

For `c1ccc(Cc2nc(CNC3CCC4(CCNCC4)CC3)no2)cc1`, the cytotoxicity at 70.5 h was -4.21%. As for `CCOc1ccc(N(C)Cc2nc(C)c(C)o2)cc1`, the cytotoxicity at 70.5 h was 15.3%. In the case of `CNS(=O)(=O)c1ccc(CN2CCC(c3ccncc3)CC2)cc1`, the cytotoxicity at 70.5 h is -14.4%. For `Cn1ccnc1CCNC(=O)NCCC1CCCCO1` (stereo not given) the value was -2.69%; for `O=S(=O)(c1cccc(F)c1)N1CCCCC1c1ccn[nH]1` (stereo not given), -7.34%. `c1cncc(-c2ccc3c(c2)C2(CCNCC2)CC3)c1`: the cytotoxicity at 70.5 h is 52.4%. In the case of `N#Cc1ccnc(N2CCN(CC(O)c3ccc(F)cc3)CC2)c1` (stereo not given), the cytotoxicity at 70.5 h was -0.587%.

For the molecule `CCCc1n[nH]c(C2CN(CCn3cccn3)CCO2)n1` (stereo not given), the cytotoxicity at 70.5 h is -6.79%.

Regarding `NC(=O)Cc1ccc(NC(=O)C2CCOCC2)cc1`, the cytotoxicity at 70.5 h is -3.85%.

As for `Cc1nn(C)c(C)c1C1CCCN1Cc1cn2ccsc2n1` (stereo not given), the cytotoxicity at 70.5 h is -0.408%.

With `Cc1nc(CN2CCO[C@H]3CN(C(=O)c4cscn4)C[C@H]32)cs1`, the cytotoxicity at 70.5 h was -5.86%. Consider `FC(F)(F)Oc1ccc(-c2noc([C@@H]3Cc4nc[nH]c4CN3)n2)cc1`, for which the cytotoxicity at 70.5 h is -4.51%. `CC(C)CCC(=O)N1CCN(C(=O)c2ccc3nccn3c2)CC1`: the cytotoxicity at 70.5 h turned out to be 15.2%.

For the molecule `COc1ccc(N2Cc3nc(=O)n(C(C)C)n3C2=O)cc1`, the cytotoxicity at 70.5 h is -15.6%. As to `O=C(NCC1CC[C@@H]2[C@@H]1OCCN2Cc1cccs1)c1ccco1` (stereo not given in full), the cytotoxicity at 70.5 h is -0.679%.

Turning to `Cc1cc(C)n(C2CCCN(C(=O)Cc3csc(C)n3)C2)n1` (stereo not given), the cytotoxicity at 70.5 h worked out at 12.8%. The figure for `CSc1cc2c(cc1NC(=O)NCC1CCOC1)OCCO2` (stereo not given) is -1.8%; for `CN(C)C(=O)CNC(CC(F)(F)F)c1ccc(F)cc1` (stereo not given) it is 7.18%; for `COc1cc2nc3n(c(=O)c2cc1OC)CCN(C(C)=O)CC3` it is -13.7%.

Consider `Cc1c(C(=O)N2CCCC(n3cncn3)C2)cnn1C` (stereo not given), for which the cytotoxicity at 70.5 h worked out at 3.32%.

Regarding `Cn1nc(C(=O)NCCc2ccc(OC3CCCC3)cc2)ccc1=O`, the cytotoxicity at 70.5 h is 12.1%. For `COCCN1Cc2ccccc2C2(CCN(C(=O)c3ccco3)CC2)C1`, the cytotoxicity at 70.5 h worked out at 1.21%. Regarding `COc1cccc(C(C)N2CCN(S(C)(=O)=O)CC2)c1` (stereo not given), the cytotoxicity at 70.5 h amounted to 28.7%.

With `CCN1CCN(CC(O)c2ccc(F)cc2)CC1` (stereo not given), the cytotoxicity at 70.5 h is -14.7%. Turning to `Cc1n[nH]c(C)c1CN(C)C(C(=O)O)c1ccc2c(c1)OCO2` (stereo not given), the cytotoxicity at 70.5 h stood at 6.84%. For `CCn1cnnc1CN(C)C(=O)c1cc(COc2cccc(F)c2)[nH]n1`, the cytotoxicity at 70.5 h is 10.8%.

For the molecule `CCOCC1CN(C(=O)N(C)C)Cc2nnn(CC3CC3)c21` (stereo not given), the cytotoxicity at 70.5 h turned out to be 4.98%. With `CCOCCn1nc(C)cc1C(=O)N1CCCC[C@H](N(C)C)C1`, the cytotoxicity at 70.5 h is -4.33%.

As to `CCCc1nnc(N2C[C@@H](C)[C@@](C)(O)C2)s1`, the cytotoxicity at 70.5 h stood at 12%. On to `CCN(CC)c1ccc2ccc(C(=O)N(C)C)cn12`, for which the cytotoxicity at 70.5 h was determined as 8.29%.

As for `Cc1cc(C(=O)NCC2(C(N)=O)CCOCC2)nn1C(C)(C)C`, the cytotoxicity at 70.5 h is -6.96%.

Consider `CCn1nc(C)c2nc(C)nc(NCCc3ccccc3)c21`, for which the cytotoxicity at 70.5 h was 2.39%.

For the molecule `COCC[C@]1(O)CCN(S(=O)(=O)c2ccc(C)cc2OC)C[C@H]1C`, the cytotoxicity at 70.5 h is -4.64%. For `CC(NC(=O)Cn1cccn1)c1ccc2c(c1)OCCCO2` (stereo not given), the cytotoxicity at 70.5 h came out at 52.1%.

For the molecule `Cn1cccc1C(=O)NCc1cn2c(n1)CN(CC1CCOC1)CC2` (stereo not given), the cytotoxicity at 70.5 h is 17.2%. On to `Cn1ncc2c(=O)[nH]c(CN3CCCc4cc(F)ccc43)nc21`, for which the cytotoxicity at 70.5 h is -23.1%.

Consider `COCCC(=O)N1C[C@@H](c2ccccc2F)[C@@]2(CCCC(=O)N2)C1`, for which the cytotoxicity at 70.5 h was -7.07%.

Consider `CC(CNC(=O)c1cc(C2CC2)on1)N1CCc2ccccc21` (stereo not given), for which the cytotoxicity at 70.5 h turned out to be 2.16%.

For `CCc1nnc2n1CCN(CC(=O)N(CC)C1=CCCCC1)C2`, the cytotoxicity at 70.5 h came out at 14.1%.

Take `O=C(NCc1ccco1)c1ccc(N2CCOCC2)cc1`: the cytotoxicity at 70.5 h was 0.191%.

Consider `Cc1nn(C)c(Cl)c1CNCc1ccc(OCC(N)=O)cc1`, for which the cytotoxicity at 70.5 h was determined as 1.75%. Consider `Cc1ccc(-c2ncc(C(=O)N3CCC[C@H](N)C3)c(O)n2)cc1`, for which the cytotoxicity at 70.5 h is -6.29%. Regarding `CC(c1nc(C(C)(C)C)no1)S(=O)(=O)CC(=O)N(C)C` (stereo not given), the cytotoxicity at 70.5 h was -6.15%. For `CC(O)(CCc1ccccc1)CNC(=O)c1ccc(F)cc1` (stereo not given) the value was 14.3%; for `Cc1ccc(C(=O)N2CC[C@@H]3[C@H]2CCC(=O)N3c2ccccc2)o1`, -13.7%; for `CCN1CCC(CNC(=O)C2(c3ccc(F)cc3)CC2)C1` (stereo not given), 52%. For `CN(C)C1(CNc2nccc(-c3cnn(C)c3)n2)CCSC1` (stereo not given) the value was -0.261%.

As for `Cc1ccc(Nc2nccc(C3CN(CC(N)=O)C3)n2)nc1`, the cytotoxicity at 70.5 h was -1.76%. As to `O=C(c1cccc2c1OCO2)N1CCCCC1Cn1cccn1` (stereo not given), the cytotoxicity at 70.5 h was -10.8%. For `Cc1ccc(N2C[C@@H]3OCCN(CC4CC4)[C@@H]3C2)nn1` the value was -7.81%; for `Cc1cnn(C2CN(Cc3nnc(Cc4ccccc4)o3)C2)c1`, -13.1%. Take `O=C(c1cc[nH]n1)N1CCCC1c1cncc(CN2CCOCC2)n1` (stereo not given): the cytotoxicity at 70.5 h is -4.87%. Take `C1CCC(c2nn3c(C4CCCO4)nnc3s2)C1` (stereo not given): the cytotoxicity at 70.5 h was -9.64%. On to `Cc1occc1C(=O)N1CCCN(Cc2cnn(C(C)C)c2)CC1`, for which the cytotoxicity at 70.5 h was -6.65%. For `COCCN(Cc1ccccc1)C(=O)c1csc(-c2nnc[nH]2)n1`, the cytotoxicity at 70.5 h is -5.25%. As to `COc1cccc(CCNC(=O)NC(C)C)c1O`, the cytotoxicity at 70.5 h was determined as 9.97%. In the case of `CCC(COC)NC(=O)N1CCC(n2ccc(C(F)(F)F)n2)CC1` (stereo not given), the cytotoxicity at 70.5 h was -104%. For `CCOC(C)C(=O)NCc1ccc(N(C)C)cc1` (stereo not given), the cytotoxicity at 70.5 h was -10.8%. `Cc1cc(O)c(OCC(=O)/N=c2\[nH]cc(C)s2)cn1`: the cytotoxicity at 70.5 h is -21%. Take `CC(C)c1nnc2n1CCN(C(=O)CN(C)Cc1ccccc1)C2`: the cytotoxicity at 70.5 h is -1.56%.

Source of the values: ChEMBL document CHEMBL3507680, “University of Dundee, Gates Library screen for HepG2 cell viability”.
